Experimental data: the NIST ThermoML archive (doi:10.1021/je700260f)
Numbers after ± are expanded uncertainties.

Settings: Liquid, Vibrating tube method

FC(C(F)(F)F)C(F)(F)F [1,1,1,2,3,3,3-heptafluoropropane]
Settings	mass density [kg/m3]
333.14 K, 28231 kPa	1431.3 ± 1.6
333.14 K, 28261 kPa	1431.4 ± 1.6
333.14 K, 28291 kPa	1431.5 ± 1.6
333.14 K, 28321 kPa	1431.5 ± 1.6
333.14 K, 28346 kPa	1431.8 ± 1.6
333.14 K, 28383 kPa	1431.9 ± 1.6
333.14 K, 28426 kPa	1432.1 ± 1.6
333.14 K, 28453 kPa	1432.3 ± 1.6
333.14 K, 29468 kPa	1436.5 ± 1.7
333.14 K, 29504 kPa	1436.7 ± 1.7
333.14 K, 29539 kPa	1436.8 ± 1.7
333.14 K, 29570 kPa	1437.1 ± 1.7
333.14 K, 29596 kPa	1437.2 ± 1.7
333.14 K, 29621 kPa	1437.1 ± 1.7
333.14 K, 29660 kPa	1437.3 ± 1.7
333.14 K, 29724 kPa	1437.5 ± 1.7
333.14 K, 29789 kPa	1437.8 ± 1.7
333.14 K, 29825 kPa	1437.9 ± 1.7
333.14 K, 29848 kPa	1438.1 ± 1.7
333.14 K, 29883 kPa	1438.3 ± 1.7
333.14 K, 29910 kPa	1438.4 ± 1.7
333.14 K, 29946 kPa	1438.5 ± 1.7
333.14 K, 29982 kPa	1438.6 ± 1.7
333.14 K, 30013 kPa	1438.8 ± 1.7
333.14 K, 30054 kPa	1439.1 ± 1.7
333.14 K, 30122 kPa	1439.3 ± 1.7
333.14 K, 30215 kPa	1439.6 ± 1.7
333.14 K, 30241 kPa	1439.8 ± 1.7
333.14 K, 30272 kPa	1440 ± 1.7
333.14 K, 30958 kPa	1442.6 ± 1.7
333.14 K, 31004 kPa	1442.8 ± 1.7
333.14 K, 31030 kPa	1443 ± 1.7
333.14 K, 31064 kPa	1443.2 ± 1.7
333.14 K, 31094 kPa	1443.2 ± 1.7
333.14 K, 31125 kPa	1443.4 ± 1.7
333.14 K, 31155 kPa	1443.4 ± 1.7
333.14 K, 31190 kPa	1443.7 ± 1.7
333.14 K, 31220 kPa	1443.6 ± 1.7
333.14 K, 31247 kPa	1443.9 ± 1.7
333.14 K, 31285 kPa	1444 ± 1.7
333.14 K, 31317 kPa	1444 ± 1.7
333.14 K, 31349 kPa	1444.1 ± 1.7
333.14 K, 31380 kPa	1444.4 ± 1.7
333.14 K, 31423 kPa	1444.5 ± 1.7
333.14 K, 31458 kPa	1444.7 ± 1.7
333.14 K, 31490 kPa	1444.8 ± 1.7
333.14 K, 31523 kPa	1445 ± 1.7
333.14 K, 31566 kPa	1445.1 ± 1.7
333.14 K, 31598 kPa	1445.3 ± 1.7
333.14 K, 31630 kPa	1445.3 ± 1.7
333.14 K, 31662 kPa	1445.5 ± 1.7
333.14 K, 31694 kPa	1445.6 ± 1.7
333.14 K, 31730 kPa	1445.8 ± 1.7
333.14 K, 31758 kPa	1445.8 ± 1.7
333.14 K, 31790 kPa	1446 ± 1.7
333.14 K, 31827 kPa	1446.1 ± 1.7
333.14 K, 31857 kPa	1446.3 ± 1.7
333.14 K, 31894 kPa	1446.5 ± 1.7
333.14 K, 31930 kPa	1446.5 ± 1.7
333.14 K, 31957 kPa	1446.6 ± 1.7
333.14 K, 32003 kPa	1446.7 ± 1.7
333.14 K, 32036 kPa	1446.9 ± 1.7
333.14 K, 32069 kPa	1447 ± 1.7
333.14 K, 32103 kPa	1447.2 ± 1.7
333.14 K, 32135 kPa	1447.4 ± 1.7
333.14 K, 32168 kPa	1447.4 ± 1.7
333.14 K, 32197 kPa	1447.6 ± 1.7
333.14 K, 32240 kPa	1447.7 ± 1.7
333.14 K, 32275 kPa	1447.7 ± 1.7
333.14 K, 32318 kPa	1448 ± 1.7
333.14 K, 32349 kPa	1448.2 ± 1.7
333.14 K, 32394 kPa	1448.3 ± 1.7
333.14 K, 32422 kPa	1448.5 ± 1.7
333.14 K, 32458 kPa	1448.6 ± 1.7
333.14 K, 32486 kPa	1448.7 ± 1.7
333.14 K, 32524 kPa	1448.8 ± 1.7
333.14 K, 32553 kPa	1448.9 ± 1.7
333.14 K, 32585 kPa	1449.1 ± 1.7
333.14 K, 32614 kPa	1449.2 ± 1.7
333.14 K, 32648 kPa	1449.3 ± 1.7
333.14 K, 32678 kPa	1449.5 ± 1.7
333.14 K, 32707 kPa	1449.5 ± 1.7
333.14 K, 32736 kPa	1449.7 ± 1.7
333.14 K, 32768 kPa	1449.9 ± 1.7
333.14 K, 32811 kPa	1449.9 ± 1.7
333.14 K, 32840 kPa	1450.1 ± 1.7
333.14 K, 32883 kPa	1450.3 ± 1.7
333.14 K, 33794 kPa	1453.9 ± 1.7
333.14 K, 33829 kPa	1453.8 ± 1.7
333.14 K, 33872 kPa	1453.9 ± 1.7
333.14 K, 33907 kPa	1454.1 ± 1.7
333.14 K, 34179 kPa	1455.3 ± 1.7
333.14 K, 34220 kPa	1455.1 ± 1.7
333.14 K, 34250 kPa	1455.4 ± 1.7
333.14 K, 34294 kPa	1455.5 ± 1.7
333.14 K, 34336 kPa	1455.9 ± 1.7
333.14 K, 34376 kPa	1455.8 ± 1.7
333.14 K, 34409 kPa	1456 ± 1.7
333.15 K, 6283 kPa	1289.9 ± 1.5
333.15 K, 6309 kPa	1290.2 ± 1.5
333.15 K, 6346 kPa	1290.5 ± 1.5
333.15 K, 6386 kPa	1291 ± 1.5
333.15 K, 6413 kPa	1291.3 ± 1.5
333.15 K, 6442 kPa	1291.6 ± 1.5
333.15 K, 6789 kPa	1295.3 ± 1.5
333.15 K, 6821 kPa	1295.6 ± 1.5
333.15 K, 6856 kPa	1296 ± 1.5
333.15 K, 6887 kPa	1296.2 ± 1.5
333.15 K, 6965 kPa	1297 ± 1.5
333.15 K, 7009 kPa	1297.4 ± 1.5
333.15 K, 8110 kPa	1308.2 ± 1.5
333.15 K, 8143 kPa	1308.5 ± 1.5
333.15 K, 8176 kPa	1308.8 ± 1.5
333.15 K, 8204 kPa	1309.2 ± 1.5
333.15 K, 8236 kPa	1309.5 ± 1.5
333.15 K, 8273 kPa	1309.8 ± 1.5
333.15 K, 8298 kPa	1310.1 ± 1.5
333.15 K, 8328 kPa	1310.3 ± 1.5
333.15 K, 8357 kPa	1310.6 ± 1.5
333.15 K, 8395 kPa	1311 ± 1.5
333.15 K, 8425 kPa	1311.2 ± 1.5
333.15 K, 8467 kPa	1311.5 ± 1.5
333.15 K, 8497 kPa	1311.8 ± 1.5
333.15 K, 8538 kPa	1312.3 ± 1.5
333.15 K, 8560 kPa	1312.4 ± 1.5
333.15 K, 8592 kPa	1312.8 ± 1.5
333.15 K, 8622 kPa	1313 ± 1.5
333.15 K, 8665 kPa	1313.3 ± 1.5
333.15 K, 8701 kPa	1313.7 ± 1.5
333.15 K, 8732 kPa	1313.9 ± 1.5
333.15 K, 8768 kPa	1314.3 ± 1.5
333.15 K, 8804 kPa	1314.6 ± 1.5
333.15 K, 8846 kPa	1314.9 ± 1.5
333.15 K, 8884 kPa	1315.2 ± 1.5
333.15 K, 8912 kPa	1315.8 ± 1.5
333.15 K, 8940 kPa	1316 ± 1.5
333.15 K, 9044 kPa	1316.8 ± 1.5
333.15 K, 9087 kPa	1317.2 ± 1.5
333.15 K, 9121 kPa	1317.5 ± 1.5
333.15 K, 9164 kPa	1317.9 ± 1.5
333.15 K, 9196 kPa	1318 ± 1.5
333.15 K, 9219 kPa	1318.3 ± 1.5
333.15 K, 9251 kPa	1318.6 ± 1.5
333.15 K, 9270 kPa	1318.8 ± 1.5
333.15 K, 9294 kPa	1319 ± 1.5
333.15 K, 9321 kPa	1319.3 ± 1.5
333.15 K, 9349 kPa	1319.5 ± 1.5
333.15 K, 9370 kPa	1319.7 ± 1.5
333.15 K, 9402 kPa	1319.9 ± 1.5
333.15 K, 9422 kPa	1320.1 ± 1.5
333.15 K, 9455 kPa	1320.4 ± 1.5
333.15 K, 9483 kPa	1320.7 ± 1.5
333.15 K, 9512 kPa	1320.9 ± 1.5
333.15 K, 9533 kPa	1321.1 ± 1.5
333.15 K, 9552 kPa	1321.1 ± 1.5
333.15 K, 9578 kPa	1321.4 ± 1.5
333.15 K, 9599 kPa	1321.5 ± 1.5
333.15 K, 9631 kPa	1321.9 ± 1.5
333.15 K, 9652 kPa	1322.1 ± 1.5
333.15 K, 9684 kPa	1322.3 ± 1.5
333.15 K, 9713 kPa	1322.7 ± 1.5
333.15 K, 9737 kPa	1322.8 ± 1.5
333.15 K, 10680 kPa	1330.6 ± 1.5
333.15 K, 10703 kPa	1330.9 ± 1.5
333.15 K, 10737 kPa	1331 ± 1.5
333.15 K, 10763 kPa	1331.3 ± 1.5
333.15 K, 10786 kPa	1331.6 ± 1.5
333.15 K, 10813 kPa	1331.6 ± 1.5
333.15 K, 11004 kPa	1333.2 ± 1.5
333.15 K, 11030 kPa	1333.5 ± 1.5
333.15 K, 11055 kPa	1333.5 ± 1.5
333.15 K, 11083 kPa	1333.8 ± 1.5
333.15 K, 11507 kPa	1337.2 ± 1.5
333.15 K, 11567 kPa	1337.7 ± 1.5
333.15 K, 11594 kPa	1337.8 ± 1.5
333.15 K, 11620 kPa	1338 ± 1.5
333.15 K, 11651 kPa	1338.3 ± 1.5
333.15 K, 11678 kPa	1338.4 ± 1.5
333.15 K, 11705 kPa	1338.6 ± 1.5
333.15 K, 11734 kPa	1338.8 ± 1.5
333.15 K, 11757 kPa	1339 ± 1.5
333.15 K, 12501 kPa	1344.5 ± 1.5
333.15 K, 12533 kPa	1344.8 ± 1.5
333.15 K, 12561 kPa	1345 ± 1.5
333.15 K, 12589 kPa	1345.2 ± 1.5
333.15 K, 12616 kPa	1345.4 ± 1.5
333.15 K, 12648 kPa	1345.7 ± 1.5
333.15 K, 12675 kPa	1345.9 ± 1.5
333.15 K, 12698 kPa	1346.1 ± 1.5
333.15 K, 12730 kPa	1346.2 ± 1.5
333.15 K, 12754 kPa	1346.4 ± 1.5
333.15 K, 12789 kPa	1346.6 ± 1.5
333.15 K, 12823 kPa	1347 ± 1.5
333.15 K, 12846 kPa	1347.1 ± 1.5
333.15 K, 13551 kPa	1352.2 ± 1.5
333.15 K, 13574 kPa	1352.3 ± 1.5
333.15 K, 13601 kPa	1352.5 ± 1.5
333.15 K, 13746 kPa	1353.4 ± 1.5
333.15 K, 13772 kPa	1353.6 ± 1.5
333.15 K, 13801 kPa	1353.7 ± 1.5
333.15 K, 13830 kPa	1354.1 ± 1.5
333.15 K, 13863 kPa	1354.3 ± 1.5
333.15 K, 13893 kPa	1354.5 ± 1.5
333.15 K, 14170 kPa	1356.5 ± 1.5
333.15 K, 14195 kPa	1356.8 ± 1.5
